Results taken from patent US6326402A, “Methods for treating viral infections using a compound capable of inhibiting microtubules” (Octamer, Inc., priority 1998, dated 2001).
“Also recorded” adds a separate entry of the source. Where two headings read alike, the source gives them in different places.

Legend:
viral replication = test: Anti-viral activity of DIME analogues and homologues (cellular assays and in vivo); format: cell-based
human cancer cells = conditions: relative to DIME; U.S. Ser. Nos. 08/655,267 and 08/833,272; cited from earlier work
tubulin [1] = conditions: cited from earlier work
[2] = Toxicity, daily oral dosing of nude mice; format: in vivo; conditions: 1 g/kg daily, 12-15 days
Description: Ten nude mice were administered a daily oral dose of ^14 C-labeled DIME (Compound 1) (1.0 g/kg, 0.1 ml, in corn oil) for a period of 12-15 days.

HIV harboring cells = format: in vitro ADME, human
[3] = Serum half-life and bioavailability of 14C-labeled DIME in mice; format: in vivo
Description: Mice were orally dosed with 126 mg/kg 14C-labeled DIME (Compound 1). After dosing, blood sampling times were 15 and 30 minutes and 1, 2, 4, 6, 8 and 24 hours. Aliquots (50 μL) of blood were assayed in a liquid scintillation counter and data expressed as microgram-equivalents per mL.
The blood level data were analyzed by the RSTRIP method (Micromath, Salt Lake City, Utah). Parallel groups of mice were dosed intravenously with 24.5 mg/kg 14C-labeled DIME and blood sampling times were 10, 20 and 30 minutes and 1, 2, 4, 6 and 8 hours.

[4] = system: uptake of iodine into the thyroid; conditions: cited from earlier work
[5] = system: non-malignant mouse pituitary adenoma; conditions: in vivo; cited from earlier work
[6] = Toxicity to human white cells; format: cell-based; conditions: white blood cells
Description: (§1) Nocodazole is a well known antitubulin drug. It is highly toxic. Thus, we established a concentration that is relatively harmless to human white cells, i.e. between 0.1 and 1 μM. At […] , nocodazole depressed HIV production by 40% thereby simulating the action of DIME. However DIME is completely nontoxic up to about 320 μM.

tumor cells = conditions: cited from earlier work
apoptosis = conditions: disruption of microtubules; cited from earlier work
[7] = system: HIV-1 (strains HIV-, 89.6 and HIV-1 SF162); test: HIV replication in stimulated human lymphocytes (reverse transcriptase assay); format: cell-based, HIV-1 in human lymphocytes
Description: Inhibition of HIV replication in human white cells by DIME
Lymphocytes were obtained from the Sacramento Blood Bank. After stimulation of cells with phytohaemagglutinine for 3 days, cells were exposed to varying concentrations of DIME (see abscissa of FIG. 1) and incubated for 2 hours at 37° C., 5% CO2, followed by the addition of 3.2×10^5 TCID50 HIV-1 viruses (strains HIV-, 89.6 and HIV-1 SF162). Viral growth was allowed to proceed for 3 days.
as §1

tadpole metamorphosis = conditions: as determined by tadpole metamorphosis; cited from earlier work
[8] = system: MDA-MB-231 (human mammary cancer) cells; test: MDA-MB-231 xenografts in nude mice, tumor volume; format: in vivo, human tumor xenograft in nude mice
Description: The ability of human tumors to grow as xenografts in athymic mice (e.g., nude mice) provides a useful in vivo model for studying the biological response to therapies for human tumors. Since the first successful xenotransplantation of human tumors into athymic mice ([…] et al., 1969, Acta Pathol. Microbial. Scand. 77:758-760), many different human tumor cell lines (e.g., mammary, lung, genitourinary, gastrointestinal, head and neck, glioblastoma, bone and malignant melanomas) have been successfully transplanted and grown into nude mice. Human mammary tumor cell lines, including MCF-7, ZR75-1 and MDA-MB-23 1, have been established as subcutaneous grafts in nude mice (Warri et al., 1991, Intl. J. Cancer 49:616-23; Ozzello et al., 1980, Eur. J. Cancer 16:553-559; Osbourne et al., 1985, Cancer Res. 45:584-590; Siebert et al., 1983, Cancer Res. 43:2223-2239). […] Experimental Protocol MDA-MB-231 (human mammary cancer) cells were obtained from American Type Culture Collection (Rockville, Md.) and maintained in the recommended growth media. Twenty nude mice were each inoculated subcutaneously with MDA-MB-231 cells (10^6 cells/100 […]). To one group of ten mice, DIME was administered by gavage (250 mg/kg, 10 mL/kg in corn oil) once […] per day, 5 days per week, for a total of 32 days. The other (control) group of ten mice was given administered vehicle only according to the same dosing schedule. Tumors were measured twice weekly using a Vernier caliper, and the mean tumor volume was determined at each time point. Comparisons between groups were made using an unpaired, two-tailed t-test and the results were analyzed using analysis of variance.

tubulin [9] = conditions: cited from earlier work; remark: listed apart in the source
human white cells = conditions: cited from earlier work
[10] = system: Ras and apoptosis-regulating kinases (ASK1), JNK pathway, MEKK1/SEK1 and c-Jun/AP-1; conditions: cited from earlier work
[11] = compared with vincristine; cited from earlier work

CCCOc1ccc(Oc2c(I)cc(C(=O)OC)cc2I)cc1 [Compound 3, Methyl 3,5-diiodo-4-(4'-n-propoxyphenoxy)benzoate]
anti-viral activity (viral replication): inactive

CCOC(=O)c1cc(I)c(Oc2ccc(OC)cc2)c(I)c1 [Compound 5, Ethyl 3,5-diiodo-4-(4'-methoxyphenoxy)benzoate]
anti-viral activity (viral replication): inactive

COC(=O)c1cc(I)c(Oc2ccc(OC)cc2Cl)c(I)c1 [Compound 14, Methyl 3,5-diiodo-4-(2'-chloro-4'methoxyphenoxy)benzoate]
maximal inhibitory action on the growth of human cancer cells as compared to DIME (human cancer cells): about 25%

COC(=O)c1cc(I)c(Oc2ccc(OC)cc2)c(I)c1 [DIME, Methyl 3,5-diiodo-4-(4'-methoxyphenoxy)benzoate]
DIME uptake by normal or stimulated white cells (human lymphocytes): do not take up significant quantities
inhibition of tubulin polymerization (tubulin [1]): inhibition of tubulin polymerization
ill effects on daily oral dosing [2]: No ill effects
DIME uptake by HIV infected cells (HIV harboring cells): significant drug uptake
i.v. serum half-life (t1/2) ([3]; i.v., 24.5 mg/kg): about 4 hours
area under the blood concentration-time curve, intravenous ([3]; intravenous, 24.5 mg/kg, mice, 14C-labeled DIME): 156 µg·h/mL
half-life (t1/2) ([3]; mice, 14C-labeled DIME, 126 mg/kg oral, 24.5 mg/kg i.v.): 2 to 2.5 h
area under the blood concentration-time curve, oral ([3]; oral, 126 mg/kg, mice, 14C-labeled DIME): 665.28 µg·h/mL
half-life in serum ([3]; serum, route and species not stated): about 4 hours
inhibition of uptake of iodine into the thyroid ([4]; rats, as compared to thyroxine): 15%
growth inhibition of non-malignant mouse pituitary tumor [5]: no inhibitory activity
MNTC ([6]; up to about, read-out: concentration up to which completely nontoxic): ~320 µM
permeation into tumor cells in vivo (tumor cells): selective permeation into tumor cells in vivo
induction of apoptosis (apoptosis): induces apoptosis
reverse transcriptase activity in cell supernatant as a function of DIME concentration (FIG. 1) ([7]; cpm, 2 h preincubation, viral growth 3 days): progressively diminishes as a function of DIME concentration; also recorded: decreases with increased "DIME" concentration
inhibition of HIV replication in human lymphocytes, concentration compared with microtubule disruption in tumor cells ([7]; human lymphocytes): at the same concentration as it disrupts microtubules in tumor cells
metabolic or cell differentiating activity (tadpole metamorphosis): no significant metabolic or cell differentiating activity
MDA-MB-231 tumor volume Day 14 ± SEM ([8]; 250 mg/kg by gavage, 5 days per week, control 284.6 ± 42.0, p = 0.06): 172.0 ± 34.3
MDA-MB-231 tumor volume Day 21 ± SEM ([8]; 250 mg/kg by gavage, 5 days per week, control 622.2 ± 58.1, p = 0.02): 285.7 ± 62.4
MDA-MB-231 tumor volume Day 28 ± SEM ([8]; 250 mg/kg by gavage, 5 days per week, control 979.0 ± 154, p = 0.01): 430 ± 85.6
MDA-MB-231 tumor volume Day 32 ± SEM ([8]; 250 mg/kg by gavage, 5 days per week, control 1176.6 ± 222.4, p = 0.01): 543.8
% decrease of tumor volume, Day 14 ([8]; 250 mg/kg, vs vehicle control): 40%
% decrease of tumor volume, Day 21 ([8]; 250 mg/kg, vs vehicle control): 54%
% decrease of tumor volume, Day 28 ([8]; 250 mg/kg, vs vehicle control): 56%
% decrease of tumor volume, Day 32 ([8]; 250 mg/kg, vs vehicle control): 54%
reduction of malignant tumor growth ([8]; non-optimized treatment regimen): significant reduction of malignant tumor growth
binding to microtubules (tubulin [9]; shown experimentally): binding to cellular microtubules
anti-viral activity (viral replication): highly active

COC(=O)Nc1nc2ccc(C(=O)c3cccs3)cc2[nH]1 [Nocodazole, reference compound]
MNTC [6]: 0.1 to 1 µM
inhibition at 0.1 µM ([7]; Human immunodeficiency virus 1, Lymphocyte, 72 h, read-out: depression of HIV production): 40%
toxicity (general statement) (human white cells): highly toxic

CC(=O)O[C@H]1C(=O)[C@@]2(C)[C@H]([C@H](OC(=O)c3ccccc3)[C@]3(O)C[C@H](OC(=O)[C@H](O)[C@@H](NC(=O)c4ccccc4)c4ccccc4)C(C)=C1C3(C)C)[C@]1(OC(C)=O)CO[C@@H]1C[C@@H]2O [taxol]
activation of kinase pathways [10]: can activate both Ras and apoptosis-regulating kinases (ASK1), pathways

NC(Cc1cc(I)c(Oc2cc(I)c(O)c(I)c2)c(I)c1)C(=O)O (stereo not shown) [thyroxine, reference compound]
suppression of iodine uptake by the thyroid ([4]; rat, in vivo): suppresses uptake of iodine by the thyroid
growth inhibition of non-malignant mouse pituitary tumor [5]: depress growth
metabolic or cell differentiating activity (tadpole metamorphosis): induces cell differentiation

CC[C@]1(O)C[C@H]2CN(CCc3c([nH]c4ccccc34)[C@@](C(=O)OC)(c3cc4c(cc3OC)N(C=O)[C@H]3[C@@](O)(C(=O)OC)[C@H](OC(C)=O)[C@]5(CC)C=CCN6CC[C@]43[C@@H]65)C2)C1 [vincristine, reference compound]
KD vs tubulin relative to DIME (tubulin [9]; may be, relative to DIME): thousand-fold higher

CC[C@]1(O)C[C@@H]2CN(CCc3c([nH]c4ccccc34)[C@@](C(=O)OC)(c3cc4c(cc3OC)N(C)[C@H]3[C@@](O)(C(N)=O)[C@H](O)[C@]5(CC)C=CCN6CC[C@]43[C@@H]65)C2)C1 [vindesine, 4-desacetyl vinblastine C-3 carboxamide]
neurotoxicity in humans [11]: less neurotoxicity than does vincristine
